According to ChEMBL document CHEMBL5050844 (2019):

Tests used:
[1] = Induction of anti-CD3/CD28 antibodies-stimulated human T cell activation at 0.3 uM assessed fold increase in IL-2 secretion measured by ELISA assay; type: functional, T cell line
[2] = target: T1, E3 ubiquitin-protein ligase CBL-B (Homo sapiens, UniProt Q13191); test: Inhibition of N-terminal Avi-tagged human CBL-B (36 to 427 residues) incubated with 60 nM Src kinase for 1.5 hrs followed by incubation with fluorescently labeled UbcH5B-Ub for 1 hr and measured by TR-FRET assay; type: single protein
[3] = Induction of anti-CD3/CD28 antibodies-stimulated human T cell activation at 1 uM assessed fold increase in IL-2 secretion measured by ELISA assay; type: functional, T cell line
[4] = Induction of anti-CD3 antibodies-stimulated human T cell activation at 1 uM assessed fold increase in IL-2 secretion measured by ELISA assay; type: functional, T cell line; also: reference of the scale not given here
[5] = Induction of anti-CD3/CD28 antibodies-stimulated human T cell activation at 0.3 uM assessed fold increase in CD25 expression measured by ELISA assay; type: functional, T cell line
[6] = Induction of anti-CD3/CD28 antibodies-stimulated human T cell activation at 4 uM assessed fold increase in IL-2 secretion measured by ELISA assay; type: functional, T cell line
[7] = Induction of anti-CD3 antibodies-stimulated human T cell activation at 8 uM assessed fold increase in IL-2 secretion measured by ELISA assay; type: functional, T cell line; also: reference of the scale not given here
[8] = Induction of anti-CD3 antibodies-stimulated human T cell activation at 8 uM assessed fold increase in CD25 expression measured by ELISA assay; type: functional, T cell line; also: reference of the scale not given here
[9] = Induction of anti-CD3 antibodies-stimulated human T cell activation at 1 uM assessed fold increase in CD25 expression measured by ELISA assay; type: functional, T cell line; also: reference of the scale not given here
[10] = target: T1, E3 ubiquitin-protein ligase CBL-B; test: Binding affinity towards N-terminal biotinylated Avi-tagged human CBL-B (36 to 427 residues) measured by surface plasmon resonance assay
[11] = Induction of anti-CD3/CD28 antibodies-stimulated human T cell activation at 1 uM assessed fold increase in CD25 expression measured by ELISA assay; type: functional, T cell line
[12] = Induction of anti-CD3/CD28 antibodies-stimulated human T cell activation at 4 uM assessed fold increase in CD25 expression measured by ELISA assay; type: functional, T cell line

T1 sequence (Q13191 whole entry, the tested form may be a part): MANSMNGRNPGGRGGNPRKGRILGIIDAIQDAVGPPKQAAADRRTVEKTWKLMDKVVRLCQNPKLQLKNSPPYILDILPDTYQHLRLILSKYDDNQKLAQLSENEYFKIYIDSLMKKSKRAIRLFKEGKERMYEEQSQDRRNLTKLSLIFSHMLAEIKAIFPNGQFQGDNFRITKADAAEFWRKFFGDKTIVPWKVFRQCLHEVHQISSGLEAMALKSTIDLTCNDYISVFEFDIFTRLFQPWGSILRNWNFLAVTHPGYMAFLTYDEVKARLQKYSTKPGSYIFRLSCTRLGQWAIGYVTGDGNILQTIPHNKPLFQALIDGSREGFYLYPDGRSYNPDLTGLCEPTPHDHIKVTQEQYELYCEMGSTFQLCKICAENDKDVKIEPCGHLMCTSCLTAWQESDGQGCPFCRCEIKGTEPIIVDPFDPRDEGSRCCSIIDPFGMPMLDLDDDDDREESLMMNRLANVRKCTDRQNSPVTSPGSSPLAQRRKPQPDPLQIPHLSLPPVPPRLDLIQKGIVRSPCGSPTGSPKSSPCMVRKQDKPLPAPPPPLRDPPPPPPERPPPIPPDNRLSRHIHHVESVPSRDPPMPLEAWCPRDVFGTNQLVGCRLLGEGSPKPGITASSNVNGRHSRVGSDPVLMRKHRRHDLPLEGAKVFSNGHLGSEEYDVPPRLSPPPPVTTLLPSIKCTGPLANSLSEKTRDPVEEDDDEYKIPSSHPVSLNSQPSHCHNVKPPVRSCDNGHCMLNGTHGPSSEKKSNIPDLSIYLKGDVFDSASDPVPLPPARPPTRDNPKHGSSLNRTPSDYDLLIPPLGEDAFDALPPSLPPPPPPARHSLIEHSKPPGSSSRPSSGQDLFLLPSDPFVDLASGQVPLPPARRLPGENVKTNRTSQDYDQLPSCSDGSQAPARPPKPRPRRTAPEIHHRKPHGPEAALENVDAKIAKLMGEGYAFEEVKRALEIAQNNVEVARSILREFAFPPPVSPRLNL

IC50 [2]	Kd [10]	SMILES	fold change (FC) [1]	fold change (FC) [3]	fold change (FC) [4]	fold change (FC) [5]	fold change (FC) [6]	fold change (FC) [7]	fold change (FC) [8]	fold change (FC) [9]	fold change (FC) [11]	fold change (FC) [12]
< 100 nM	< 100 nM	CC(c1cc2c(c(C(F)(F)F)c1)CN(c1cccc([C@H](C)Cc3nncn3C)c1)C2=O)N1CC[C@H](O)C1 (stereo not given in full)	2.51	>=7.5	0.151	1.31	>=7.5	>=0.201	>=1.001	>=1.001	1.31	1.51
< 100 nM	< 100 nM	C[C@H](Cc1nncn1C)c1cccc(N2Cc3c(cc(CO)cc3C(F)(F)F)C2=O)c1	2.51	5	0.151	1.01	>=7.5	>=0.201	>=1.001	>=1.001	1.01	1.31
< 100 nM	< 100 nM	C[C@H](Cc1nncn1C)c1cccc(N2Cc3c(cc(CN4C[C@@H](O)[C@H](F)C4)cc3C(F)(F)F)C2=O)c1	2.51	>=7.5	>=0.201	1.01	>=7.5	>=0.201	>=1.001	>=1.001	1.31	1.31
< 100 nM	< 100 nM	C[C@H](Cc1nncn1C)c1cccc(N2Cc3c(cc(CN4C[C@@H](F)[C@@H](O)C4)cc3C(F)(F)F)C2=O)c1	2.51	5	0.151	1.01	>=7.5	>=0.201	>=1.001	>=1.001	1.31	1.31
< 100 nM	< 100 nM	C[C@H](Cc1nncn1C)c1cccc(N2Cc3c(cc([C@@H](C)N4CC[C@H](F)C4)cc3C(F)(F)F)C2=O)c1	5	>=7.5	0.151	1.01	>=7.5	>=0.201	>=1.001	>=1.001	1.01	1.31
< 100 nM	< 100 nM	CC(O)c1cc2c(c(C(F)(F)F)c1)CN(c1cccc([C@H](C)Cc3nncn3C)c1)C2=O (stereo not given in full)	2.51	5	0.151	1.01	>=7.5	>=0.201	>=1.001	0.801	1.31	1.31
< 100 nM	< 100 nM	C[C@H](Cc1nncn1C)c1cccc(N2Cc3c(cc(CN4CC(O)C(F)(F)C4)cc3C(F)(F)F)C2=O)c1 (stereo not given in full)	2.51	5	0.101	1.01	>=7.5	>=0.201	>=1.001	>=1.001	1.31	1.31
< 100 nM	< 100 nM	C[C@H](Cc1nncn1C)c1cccc(N2Cc3c(cc(C(=O)N4C[C@@H](O)C[C@H]4C)cc3C(F)(F)F)C2=O)c1.O=C(O)C(F)(F)F	2.51	5	>=0.201	1.31	>=7.5	>=0.201	>=1.001	0.801	1.51	>=1.76

The remaining lines, values behind:

SMILES	IC50 [2]	Kd [10]	fold change (FC) [1]	fold change (FC) [3]	fold change (FC) [4]	fold change (FC) [5]	fold change (FC) [6]	fold change (FC) [7]	fold change (FC) [8]	fold change (FC) [9]	fold change (FC) [11]	fold change (FC) [12]
C[C@H](Cc1nncn1C)c1cccc(NC(=O)c2ccc(CO)c(C3CC3)n2)c1	< 100 nM	< 100 nM	>=7.5	>=7.5	>=0.201	1.31	>=7.5	>=0.201	>=1.001	>=1.001	1.51	1.51
C[C@H](Cc1nncn1C)c1cccc(N2Cc3c(cc(-n4cccn4)cc3C(F)(F)F)C2=O)c1	< 100 nM	< 100 nM	2.51	>=7.5	>=0.201	1.31	>=7.5	>=0.201	>=1.001	>=1.001	1.51	1.51
Cc1conc1C[C@@H](C)c1cccc(N2Cc3c(cc(C(=O)N4CC[C@H](O)C4)cc3C(F)(F)F)C2=O)c1	< 100 nM	< 100 nM	2.51	5	0.101	1.01	>=7.5	>=0.201	>=1.001	>=1.001	1.01	1.01
Cn1cnnc1C(F)(F)[C@](C)(F)c1cccc(N2Cc3c(cc(CN4CC[C@H](S(C)(=O)=O)C4)cc3C(F)(F)F)C2=O)c1	< 100 nM	< 100 nM	2.51	2.51	0.101	1.01	>=7.5	>=0.201	>=1.001	0.801	1.01	1.01
C[C@H](Cc1nncn1C)c1cccc(N2Cc3c(cc(CN4CC(F)(F)C4)cc3C(F)(F)F)C2=O)c1	< 100 nM	< 100 nM	5	>=7.5	0.151	1.01	>=7.5	>=0.201	>=1.001	>=1.001	1.31	1.31
Cc1c[nH]nc1-c1cc2c(c(C(F)(F)F)c1)CN(c1cccc([C@H](C)Cc3nncn3C)c1)C2=O	< 100 nM	< 100 nM	1.01	5	>=0.201	1.31	>=7.5	>=0.201	0.801	0.601	1.51	>=1.76
C[C@H](Cc1nncn1C)c1cccc(NC(=O)c2cc(C3CC3)nc(C3CC3)n2)c1	< 100 nM	< 100 nM	2.51	5	>=0.201	1.01	>=7.5	>=0.201	>=1.001	>=1.001	1.51	1.51
